# Measured values published in US6093563A, “Chondroitin lyase enzymes” (IBEX Technologies R and D, Inc., priority 1994, dated 2000).
# Tests used:
# [1] = molecular target: Flavobacterium heparinum chondroitinase B (55,000 Dalton, purified, Sequence ID No. 4) (Pedobacter heparinus, UniProt Q46079); conditions: 0.1 mM reagent; 20 mM Tris buffer, pH 8.0; 0.5 mg/ml dermatan sulfate as substrate; none = 100
# Procedure: (§1) Chondroitinase activity was determined by a modification of the spectrophotometric assay described by Yang, et al., J. Biol. Chem., 160(30):1849-1857, 1985. Chondroitinases degrade their respective substrates by an eliminative reaction resulting in the formation of 4,5-unsaturated sulfated disaccharides which absorb ultraviolet light at 232 nm. Reaction buffers contained 50 mM Tris, pH 8.0 and 0.5 mg/ml substrate; dermatan sulfate for chondroitinase B activity, chondroitin sulfate A for chondroitinase AC activity. A continuous spectrophotometric assay is carried out by transferring a 10 to 50 μl sample to a quartz cuvette and adding the reaction buffer to make a final volume of one ml. The cuvette is placed in a Beckman DU 640 spectrophotometer, controlled to maintain a constant temperature of 30° C., and the increase in absorbance at 232 nm monitored for three to five minutes. Activities are calculated using the molar extinction coefficient for chondroitin sulfate, 5.1×103 M^-1, and are expressed in international units, IU, where one IU is the amount of enzyme required to catalyze the formation of one μmole unsaturated product per minute.
# [2] = molecular target: Flavobacterium heparinum chondroitinase AC (77,000 Dalton, purified, Sequence ID No. 2) (Pedobacter heparinus, UniProt Q59288); conditions: 0.1 mM reagent; 20 mM Tris buffer, pH 8.0; 0.5 mg/ml chondroitin sulfate A as substrate; none = 100
# Sequence of Flavobacterium heparinum chondroitinase AC (77,000 Dalton, purified, Sequence ID No. 2) (Q59288 23-700): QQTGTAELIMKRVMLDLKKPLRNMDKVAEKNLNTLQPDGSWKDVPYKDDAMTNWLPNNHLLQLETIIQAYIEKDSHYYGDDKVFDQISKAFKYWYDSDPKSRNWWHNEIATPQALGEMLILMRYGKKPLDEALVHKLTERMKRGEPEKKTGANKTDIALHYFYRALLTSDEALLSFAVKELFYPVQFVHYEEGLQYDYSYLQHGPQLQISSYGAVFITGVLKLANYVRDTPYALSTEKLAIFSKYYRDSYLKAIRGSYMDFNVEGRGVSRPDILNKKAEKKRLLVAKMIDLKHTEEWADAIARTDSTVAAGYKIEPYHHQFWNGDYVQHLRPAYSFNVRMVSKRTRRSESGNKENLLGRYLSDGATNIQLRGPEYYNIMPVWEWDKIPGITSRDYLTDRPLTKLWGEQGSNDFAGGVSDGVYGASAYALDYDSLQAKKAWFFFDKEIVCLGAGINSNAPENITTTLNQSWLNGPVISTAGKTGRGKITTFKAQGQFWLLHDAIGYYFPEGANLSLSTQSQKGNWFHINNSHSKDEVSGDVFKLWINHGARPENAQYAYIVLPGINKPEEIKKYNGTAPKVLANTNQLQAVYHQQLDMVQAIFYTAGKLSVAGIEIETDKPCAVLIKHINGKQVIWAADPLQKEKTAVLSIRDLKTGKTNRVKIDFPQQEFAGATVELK
# Procedure: as §1
# Sequence of Flavobacterium heparinum chondroitinase B (55,000 Dalton, purified, Sequence ID No. 4) (Q46079 26-506): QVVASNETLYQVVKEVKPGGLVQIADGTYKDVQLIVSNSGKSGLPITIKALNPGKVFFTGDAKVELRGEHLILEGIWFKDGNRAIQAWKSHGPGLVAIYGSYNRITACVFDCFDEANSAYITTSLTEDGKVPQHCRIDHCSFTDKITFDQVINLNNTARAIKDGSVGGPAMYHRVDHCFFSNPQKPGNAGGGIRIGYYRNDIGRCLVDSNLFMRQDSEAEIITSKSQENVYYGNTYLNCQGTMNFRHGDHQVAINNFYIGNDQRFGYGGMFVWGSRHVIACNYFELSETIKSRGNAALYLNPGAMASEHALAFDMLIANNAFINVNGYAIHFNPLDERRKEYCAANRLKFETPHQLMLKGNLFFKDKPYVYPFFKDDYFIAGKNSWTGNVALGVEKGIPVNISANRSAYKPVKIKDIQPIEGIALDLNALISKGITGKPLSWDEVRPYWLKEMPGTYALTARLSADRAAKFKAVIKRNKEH
smiles,measurement,setting,value
O=C(O)CN(CCN(CC(=O)O)CC(=O)O)CC(=O)O [EDTA],chondroitinase B relative activity (%),[1],1%
same,chondroitinase AC relative activity (%),[2],97%
